Key:
HS-PSS = assay: relative IC50 (inflection point of fitted dose-response curve, CellTox-Green cytotoxicity, 72 h; top asymptote may be below 50%); higher = less potent
Method in brief: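 MPNST cell lines and primary human Schwann cells were incubated 72 h at 37 °C in 384-well plates holding five 10-fold compound dilutions. CellTox-Green was added before seeding at a final 1:1000 dilution and reported fluorescence from DNA released by disrupted cells. Signals were scaled to vehicle and positive-control wells, and cultures failing plate quality control were dropped. Drug sensitivity score and relative IC50 come from four-parameter logistic fits, with IC50 censored at the top concentration.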

YST-1 = assay: relative IC50 (inflection point of fitted dose-response curve, CellTiter-Glo viability, 72 h; top asymptote may be below 50% inhibition); higher = less potent
Method in brief: (§1)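 MPNST cell lines and primary human Schwann cells (750–1000 cells per well) went into 384-well plates preprinted with each compound at five concentrations in 10-fold steps. Plates were incubated 72 h at 37 °C, 5% CO2. Viability was read as CellTiter-Glo ATP luminescence, scaled between vehicle and positive-control wells, with duplicates averaged where present. Percent inhibition is at the top concentration; drug sensitivity score and relative IC50 (censored at top concentration) come from four-parameter logistic fits.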

HS-Sch-2 = assay: as above
Method in brief: as §1

Compound	relative IC50 (HS-PSS) [nM]	relative IC50 (YST-1) [nM]	relative IC50 (HS-Sch-2) [nM]
Clc1ccccc1C(c1ccccc1)(c1ccccc1)n1cccn1 [TRAM-34]	> 1000	> 1000	–
O=C(c1ccc(/C=C/c2n[nH]c3ccccc23)cc1)N1CCNCC1 [KW-2449]	> 2500	509	> 2500
CN(C)C(=N)NC(=N)N [Metformin]	> 100000	> 100000	> 100000
C#Cc1cccc(Nc2ncnc3cc4c(cc23)OCCOCCOCCO4)c1 [Icotinib]	> 10000	–	–
Cc1nc(=O)c2cc(CN(C)c3ccc(C(=O)N[C@@H](CCC(=O)O)C(=O)O)s3)ccc2[nH]1 [Raltitrexed]	> 1000	11.2	22.7
O=C(NOC[C@H](O)CO)c1ccc(F)c(F)c1Nc1ccc(I)cc1F	> 1000	> 1000	–
CCc1nc(-c2cccc(C)c2)c(-c2ccnc(NC(=O)c3ccccc3)c2)s1 [TAK-715]	> 10000	–	1210
O=C(c1cccc(Cl)c1F)N1CCN(Cc2cccc(Nc3nccs3)n2)CC1 [MK-8745]	> 2500	231	623
c1cc(CN2CCCNCCNCCCNCC2)ccc1CN1CCCNCCNCCCNCC1 [Plerixafor]	> 10000	> 10000	> 10000
COCC1(CO)C(=O)C2CCN1CC2 (stereo unspecified) [APR-246]	> 10000	> 10000	> 10000
OCCn1cc(-c2cnc3nnn(Cc4ccc5ncccc5c4)c3n2)cn1	> 2500	–	> 2500
CN1CC[C@@H](NC(=O)Nc2ccc(C#N)cc2)C[C@@H]1c1nc2ccccc2[nH]1 [Glasdegib]	> 1000	> 1000	–
O=C(Nc1cccc(Cl)c1)Nc1ncc(CCNc2ncnc3ccsc23)s1 [SNS-314]	> 1000	8.84	185
Cn1ncc(Cl)c1-c1cc(C(=O)N[C@H](CN)Cc2cccc(F)c2)sc1Cl [Afuresertib]	> 1000	327	> 1000
Cc1cc(-c2ncc(-c3cccnc3)cc2/C=C/c2ccccc2)cnc1-c1cccnc1 [Pyridoclax]	> 25000	672	–
Cc1nc(NC(=O)N2CCC[C@H]2C(N)=O)sc1-c1ccnc(C(C)(C)C(F)(F)F)c1 [Alpelisib]	> 2500	217	–
NC1(C(=O)N[C@@H](CCO)c2ccc(Cl)cc2)CCN(c2ncnc3[nH]ccc23)CC1 [AZD-5363]	> 10000	2090	3470
O=C(Nc1ccc(OC(F)(F)F)cc1)c1sccc1NCc1ccnc2ccccc12 [OSI-930]	> 2500	> 2500	–
COc1ccc(Cn2ccc3ccc(C(=O)NO)cc32)cc1	> 10000	1600	3750
O=C(Nc1nc2cccc(-c3ccc(CN4CCS(=O)(=O)CC4)cc3)n2n1)C1CC1 [Filgotinib]	> 10000	3690	2680
N#CC1(c2ccc(NC(=O)c3cccnc3NCc3ccncc3)cc2)CCCC1 [Apatinib]	> 10000	–	> 10000
C=CC(=O)Nc1cccc(Nc2nc(Nc3ccc(OCCOC)cc3)ncc2F)c1 [Spebrutinib]	> 1000	–	–
CC[C@H](C)C(=O)O[C@H]1C[C@H](O)C=C2C=C[C@H](C)[C@H](CC[C@@H](O)C[C@@H](O)CC(=O)O)[C@H]21 [Pravastatin]	> 10000	> 10000	> 10000
CNC(=O)c1cccc2cc(Oc3ccnc4cc(OCC5(N)CC5)c(OC)cc34)ccc12 [Lucitanib]	> 10000	1420	3710
O=C(Nc1cc(Cl)cc2c1[nH]c1cnccc12)c1cccnc1 [PS-1145]	> 25000	–	> 25000
CCN(c1cc(-c2ccc(CN3CCOCC3)cc2)cc(C(=O)NCc2c(C)cc(C)[nH]c2=O)c1C)C1CCOCC1 [Tazemetostat]	> 10000	> 10000	–
NC(=O)c1cccc(-c2cccc(OC(=O)NC3CCCCC3)c2)c1 [URB597]	> 1000	> 1000	> 1000

Source: the supplement of paper PMC5579334
